From PubChem BioAssay (NCI)
Values joined by “and” are separate entries in the source; they are usually repeats but may differ in a detail not shown here. Equal entries are not always repeated.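 Cells were grown in 96-well plates and exposed to each compound for 48 hours at five concentrations; endpoints were interpolated linearly between bracketing concentrations, or set to the highest concentration if not reached. Here, GI50 denotes the concentration required for 50% inhibition of growth. Definition used: TGI = concentration required for complete inhibition of growth.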

Experiments:
Experiment in all cases: NCI anticancer screen, dose series, 48 h
M19-MEL melanoma = test system: M19-MEL melanoma
DLD-1 colon = test system: DLD-1 colon
CCRF-CEM leukemia = test system: CCRF-CEM leukemia
OVCAR-8 ovarian = test system: OVCAR-8 ovarian
MALME-3M melanoma = test system: MALME-3M melanoma
HCT-15 colon = test system: HCT-15 colon
NCI-H23 lung = test system: NCI-H23 lung
HS 578T breast = test system: HS 578T breast
NCI-H522 lung = test system: NCI-H522 lung
NCI-H226 lung = test system: NCI-H226 lung

Q: `Cn1cc(NC(=O)c2cc(NC(=O)CCCCCCCC(=O)Nc3cc(C(=O)Nc4cc(C(=O)NCCC(=N)N)n(C)c4)n(C)c3)cn2C)cc1C(=O)NCCC(=N)N` was tested. Which TGI (M19-MEL melanoma) did it give?
A: 16.7 µM

Q: What about the TGI (DLD-1 colon) of the same compound?
A: > 100 µM

Q: What about the TGI (CCRF-CEM leukemia) of the same compound?
A: 86.1 µM

Q: What about the TGI (OVCAR-8 ovarian) of the same compound?
A: 42.9 µM

Q: What about the TGI (MALME-3M melanoma) of the same compound?
A: 20.1 µM

Q: What about the TGI (HCT-15 colon) of the same compound?
A: > 100 µM

Q: And the TGI (NCI-H23 lung)?
A: 33.7 µM

Q: What does the source list for `CC1=NN(c2nc(N)nc(/C=C\c3ccccc3)n2)C(C)(C)C1`?
A: GI50 (HS 578T breast): 13.5 µM; TGI (HS 578T breast): 77.5 µM; GI50 (CCRF-CEM leukemia): 2.99 µM; TGI (CCRF-CEM leukemia): 34.7 µM; GI50 (NCI-H522 lung): 3.14 µM; TGI (NCI-H522 lung): 13.5 µM; GI50 (NCI-H226 lung): 13.7 µM; TGI (NCI-H226 lung): 28.6 µM; GI50 (OVCAR-8 ovarian): 5.33 µM; TGI (OVCAR-8 ovarian): 39 µM; GI50 (MALME-3M melanoma): 10.7 µM; TGI (MALME-3M melanoma): 29.4 µM; GI50 (HCT-15 colon): 3.27 µM; TGI (HCT-15 colon): 44.7 µM; GI50 (NCI-H23 lung): 4.37 µM; TGI (NCI-H23 lung): 18 µM

Q: For `NC(=O)C(=O)Cc1nc2ccccc2s1`, which TGI (M19-MEL melanoma) is on record?
A: > 100 µM

Q: What about the TGI (CCRF-CEM leukemia) of the same compound?
A: > 100 µM

Q: What about the TGI (NCI-H522 lung) of the same compound?
A: > 100 µM

Q: And the TGI (NCI-H226 lung)?
A: > 100 µM

Q: What about the TGI (OVCAR-8 ovarian) of the same compound?
A: > 100 µM

Q: And the TGI (MALME-3M melanoma)?
A: > 100 µM

Q: What about the TGI (HCT-15 colon) of the same compound?
A: > 100 µM

Q: And the TGI (NCI-H23 lung)?
A: > 100 µM

Q: What does the source list for `O=C(/C=C/c1cccc(Oc2ccc(Cl)cc2)c1)c1ccccc1`?
A: GI50 (HS 578T breast): 109 µM; TGI (HS 578T breast): 628 µM; GI50 (CCRF-CEM leukemia): 31.6 µM; TGI (CCRF-CEM leukemia): 384 µM; GI50 (NCI-H522 lung): 67.1 µM; TGI (NCI-H522 lung): 246 µM; GI50 (NCI-H226 lung): 122 µM; TGI (NCI-H226 lung): 273 µM; GI50 (OVCAR-8 ovarian): 26.9 µM; TGI (OVCAR-8 ovarian): 66.9 µM; GI50 (MALME-3M melanoma): 38.3 µM; TGI (MALME-3M melanoma): 175 µM; GI50 (HCT-15 colon): 18.7 µM; TGI (HCT-15 colon): 44.6 µM; GI50 (NCI-H23 lung): 80.7 µM; TGI (NCI-H23 lung): 266 µM

Q: Which GI50 (HS 578T breast) does the source give for `CCc1c(C#N)c(SC(C(N)=O)c2ccccc2)nc(N2CCC(N)CC2)c1C#N` (stereo unspecified) here?
A: 14.1 µM

Q: And the TGI (HS 578T breast)?
A: 41.1 µM

Q: What about the GI50 (CCRF-CEM leukemia) of the same compound?
A: 15.2 µM

Q: What about the TGI (CCRF-CEM leukemia) of the same compound?
A: 36.8 µM

Q: What about the GI50 (NCI-H522 lung) of the same compound?
A: 12.9 µM

Q: And the TGI (NCI-H522 lung)?
A: 27.1 µM

Q: And the GI50 (NCI-H226 lung)?
A: 13 µM

Q: And the TGI (NCI-H226 lung)?
A: 27.7 µM

Q: What about the GI50 (OVCAR-8 ovarian) of the same compound?
A: 15.9 µM

Q: And the TGI (OVCAR-8 ovarian)?
A: 33.7 µM

Q: And the GI50 (MALME-3M melanoma)?
A: 14.6 µM

Q: And the TGI (MALME-3M melanoma)?
A: 28.1 µM

Q: And the GI50 (HCT-15 colon)?
A: 53.5 µM

Q: What about the TGI (HCT-15 colon) of the same compound?
A: > 100 µM

Q: What about the GI50 (NCI-H23 lung) of the same compound?
A: 16.4 µM

Q: And the TGI (NCI-H23 lung)?
A: 31 µM

Q: How did the GI50 (HS 578T breast) turn out when `O=C(Nc1cccc(-n2cc(-c3ccncc3)c(-c3ccc(O)c(Cl)c3)n2)c1)Nc1ccc(Cl)c(Cl)c1` was run?
A: 1.4 µM

Q: And the TGI (HS 578T breast)?
A: 7.1 µM

Q: And the GI50 (CCRF-CEM leukemia)?
A: 1.39 µM

Q: What about the TGI (CCRF-CEM leukemia) of the same compound?
A: 5.73 µM

Q: And the GI50 (NCI-H522 lung)?
A: 1.3 µM

Q: What about the TGI (NCI-H522 lung) of the same compound?
A: 3.76 µM

Q: And the GI50 (NCI-H226 lung)?
A: 3.01 µM

Q: What about the TGI (NCI-H226 lung) of the same compound?
A: 9.53 µM

Q: And the GI50 (OVCAR-8 ovarian)?
A: 1.65 µM

Q: And the TGI (OVCAR-8 ovarian)?
A: 5.61 µM

Q: What about the GI50 (MALME-3M melanoma) of the same compound?
A: 2.11 µM

Q: And the TGI (MALME-3M melanoma)?
A: 6.86 µM

Q: And the GI50 (HCT-15 colon)?
A: 1.63 µM

Q: And the TGI (HCT-15 colon)?
A: 8.52 µM

Q: What about the GI50 (NCI-H23 lung) of the same compound?
A: 1.88 µM

Q: What about the TGI (NCI-H23 lung) of the same compound?
A: 6.62 µM

Q: With `Cc1c(C)c2ccc(OC(C)C(=O)O)cc2oc1=O` (stereo unspecified) as the compound, how does the TGI (M19-MEL melanoma) read?
A: > 100 µM

Q: What about the TGI (DLD-1 colon) of the same compound?
A: > 100 µM

Q: And the TGI (CCRF-CEM leukemia)?
A: > 100 µM

Q: And the TGI (NCI-H522 lung)?
A: > 100 µM

Q: And the TGI (NCI-H226 lung)?
A: > 100 µM

Q: What about the TGI (OVCAR-8 ovarian) of the same compound?
A: > 100 µM

Q: And the TGI (MALME-3M melanoma)?
A: > 100 µM

Q: What about the TGI (NCI-H23 lung) of the same compound?
A: > 100 µM

Q: With `Nc1c(C(=O)Nc2ccccc2O)[n+]([O-])c2ccccc2[n+]1[O-]` as the compound, how does the TGI (M19-MEL melanoma) read?
A: 27.7 µM

Q: What about the TGI (DLD-1 colon) of the same compound?
A: > 100 µM

Q: And the TGI (NCI-H522 lung)?
A: > 100 µM

Q: And the TGI (NCI-H226 lung)?
A: > 100 µM

Q: What about the TGI (OVCAR-8 ovarian) of the same compound?
A: > 100 µM

Q: And the TGI (MALME-3M melanoma)?
A: > 100 µM

Q: What about the TGI (HCT-15 colon) of the same compound?
A: > 100 µM

Q: And the TGI (NCI-H23 lung)?
A: 84.7 µM

Q: Which GI50 (HS 578T breast) does the source give for `N=C(N)c1ccc(OCCCCCOc2ccc(C(=N)N)cc2)cc1` here?
A: 7.64 µM

Q: What about the TGI (HS 578T breast) of the same compound?
A: 32.2 µM and 33 µM and 38.5 µM

Q: And the GI50 (CCRF-CEM leukemia)?
A: 23.7 µM and 11.1 µM and 45.1 µM

Q: And the TGI (CCRF-CEM leukemia)?
A: > 50 µM and 60.1 µM and > 100 µM

Q: And the GI50 (NCI-H522 lung)?
A: 1.66 µM

Q: What about the TGI (NCI-H522 lung) of the same compound?
A: 9.58 µM and 21.3 µM

Q: What about the GI50 (NCI-H226 lung) of the same compound?
A: 5.24 µM and 6.96 µM and 14.2 µM

Q: And the TGI (NCI-H226 lung)?
A: > 50 µM and 30.2 µM and 58.8 µM

Q: What about the GI50 (OVCAR-8 ovarian) of the same compound?
A: 2.05 µM

Q: What about the TGI (OVCAR-8 ovarian) of the same compound?
A: 12.9 µM and 22.5 µM and 86.6 µM

Q: What about the GI50 (MALME-3M melanoma) of the same compound?
A: 1.81 µM

Q: What about the TGI (MALME-3M melanoma) of the same compound?
A: 8.4 µM and 35.3 µM

Q: What about the GI50 (HCT-15 colon) of the same compound?
A: 7.57 µM

Q: What about the TGI (HCT-15 colon) of the same compound?
A: > 100 µM

Q: And the GI50 (NCI-H23 lung)?
A: 3.34 µM

Q: And the TGI (NCI-H23 lung)?
A: > 50 µM and 25.4 µM and 29 µM
